Test results as given in patent US7601746B2 (Shionogi & Co., Ltd., priority 2003, dated 2009).

Molecular target: T1, human TPO receptor (hTPOR) (Homo sapiens, UniProt P40238)
T1 construct: expressed in transfected cells; host or cells: BaF-B03 (murine IL-3 dependent cell line)
T1 sequence (P40238 26-635): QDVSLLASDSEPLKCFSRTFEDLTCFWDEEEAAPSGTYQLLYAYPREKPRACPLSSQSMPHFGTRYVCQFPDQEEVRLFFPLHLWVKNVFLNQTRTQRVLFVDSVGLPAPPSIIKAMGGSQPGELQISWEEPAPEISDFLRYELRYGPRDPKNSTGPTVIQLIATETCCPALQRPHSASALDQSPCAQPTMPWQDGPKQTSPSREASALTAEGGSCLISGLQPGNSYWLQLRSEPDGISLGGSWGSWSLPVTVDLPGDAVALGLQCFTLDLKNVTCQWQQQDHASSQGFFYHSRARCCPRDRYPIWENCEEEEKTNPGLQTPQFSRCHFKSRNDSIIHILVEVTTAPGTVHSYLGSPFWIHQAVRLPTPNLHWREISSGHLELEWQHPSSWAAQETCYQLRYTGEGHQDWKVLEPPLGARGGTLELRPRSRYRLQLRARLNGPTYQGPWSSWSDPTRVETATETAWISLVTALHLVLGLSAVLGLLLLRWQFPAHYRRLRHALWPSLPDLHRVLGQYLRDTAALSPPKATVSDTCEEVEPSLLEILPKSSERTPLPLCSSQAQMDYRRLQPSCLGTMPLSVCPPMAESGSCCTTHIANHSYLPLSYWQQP
Experiment: Thrombopoietic activity: proliferation of TPO dependent BaF/hTPOR cells (WST-1, absorbance at 450 nm)
Type: cell-based
Settings: 20 h + 4 h WST-1, ED50 = half concentration of the concentration showing the maximum thrombopoietic activity
In short: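 Proliferation read-out: WST-1 absorbance at 450 nm after 20 h compound exposure plus 4 h reagent, using IL-3-deprived BaF/hTPOR cells (5×10^4 per well) dependent on human TPO receptor signalling. ED50 defined as half the concentration producing maximal activity.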

SMILES	EC50 (Table 1) [nM]	EC50 (Table 2) [nM]
CCCCCCCCCCC(OC)c1cccc(-c2csc(NC(=O)c3cc(Cl)c(C=C(C)C(=O)O)c(Cl)c3)n2)c1F (stereo not shown) [Compound B91, 3-(2,6-dichloro-4-{4-[2-fluoro-3-(1-methyloxyundecyl)phenyl]thiazol-2-ylcarbamoyl)phenyl]-2-methylacrylic acid]	1.02	
CCCCOCCCc1cccc(-c2csc(NC(=O)c3cc(Cl)c(C=C(C)C(=O)O)c(Cl)c3)n2)c1F [Compound B93, 3-(4-{4-[3-(3-n-butyloxypropyl)-2-fluorophenyl]thiazol-2-ylcarbamoyl}-2,6-dichlorophenyl]-2-methylacrylic acid]	0.91	
CC(=Cc1c(Cl)cc(C(=O)Nc2nc(-c3cccc(CCCOC(C)C)c3F)cs2)cc1Cl)C(=O)O [Compound B94, 3-(2,6-dichloro-4-{4-[2-fluoro-3-(3-isopropyloxypropyl)phenyl]thiazol-2-ylcarbamoyl)phenyl]-2-methylacrylic acid]	0.97	
CCCOCCCc1cccc(-c2csc(NC(=O)c3cc(Cl)c(C=C(C)C(=O)O)c(Cl)c3)n2)c1F [Compound B95, 3-(2,6-dichloro-4-{4-[2-fluoro-3-(3-n-propyloxypropyl)phenyl]thiazol-2-ylcarbamoyl)phenyl]-2-methylacrylic acid]	0.82	
CCCCCCOCCCc1cccc(-c2csc(NC(=O)c3cc(Cl)c(C=C(C)C(=O)O)c(Cl)c3)n2)c1F [Compound B96, 3-(2,6-dichloro-4-{4-[2-fluoro-3-(3-n-hexyloxypropyl)phenyl]thiazol-2-ylcarbamoyl)phenyl]-2-methylacrylic acid]	0.78	
CCCOC(C)c1cccc(-c2csc(NC(=O)c3cc(Cl)c(C=C(C)C(=O)O)c(Cl)c3)n2)c1F (stereo not shown) [Compound B97, 3-(2,6-dichloro-4-{4-[2-fluoro-3-(1-n-propyloxyethyl)phenyl]thiazol-2-ylcarbamoyl)phenyl]-2-methylacrylic acid]	0.94	
CCCCOC(C)c1cccc(-c2csc(NC(=O)c3cc(Cl)c(C=C(C)C(=O)O)c(Cl)c3)n2)c1F (stereo not shown) [Compound B98, 3-(4-{4-[3-(1-n-butyloxyethyl)-2-fluorophenyl]thiazol-2-ylcarbamoyl)-2,6-dichlorophenyl]-2-methylacrylic acid]	0.73	
CCCCCCOC(C)c1cccc(-c2csc(NC(=O)c3cc(Cl)c(C=C(C)C(=O)O)c(Cl)c3)n2)c1F (stereo not shown) [Compound B99, 3-(2,6-dichloro-4-{4-[2-fluoro-3-(1-n-hexyloxyethyl)phenyl]thiazol-2-ylcarbamoyl)phenyl]-2-methylacrylic acid]	0.59	
CCCCOCCCC(OCCCC)c1cccc(-c2csc(NC(=O)c3cc(Cl)c(C=C(C)C(=O)O)c(Cl)c3)n2)c1F (stereo not shown) [Compound B100, 3-(4-{4-[3-(1,4-dibutyloxybutyl)-2-fluorophenyl]thiazol-2-ylcarbamoyl)-2,6-dichlorophenyl]-2-methylacrylic acid]	0.68	
CCCCCCOCCC(OC)c1cccc(-c2csc(NC(=O)c3cc(Cl)c(C=C(C)C(=O)O)c(Cl)c3)n2)c1F (stereo not shown) [Compound B101, 3-(2,6-dichloro-4-{4-[2-fluoro-3-(3-n-hexyloxy-1-methyloxypropyl)phenyl]thiazol-2-ylcarbamoyl)phenyl]-2-methylacrylic acid]	1.9	
CCCCCC(OC)c1cccc(-c2csc(NC(=O)c3cc(F)c(/C=C(\C)C(=O)O)c(F)c3)n2)c1OC (stereo not shown) [Compound B347, (E)-3-(2,6-difluoro-4-{4-[2-methyloxy-3-(1-methyloxyhexyl)phenyl]thiazol-2-ylcarbamoyl}phenyl)-2-methylacrylic acid]	18.7	
COc1c(-c2csc(NC(=O)c3cc(F)c(/C=C(\C)C(=O)O)c(F)c3)n2)cccc1C(CC(C)(C)C)OC (stereo not shown) [Compound B349, (E)-3-(2,6-difluoro-4-{4-[2-methyloxy-3-(1-methyloxy-3,3-dimethylbutyl)phenyl]thiazol-2-ylcarbamoyl}phenyl)-2-methylacrylic acid]	16.8	
CCCCCCCCCC(OC)c1cccc(-c2csc(NC(=O)c3cc(F)c(/C=C(\C)C(=O)O)c(F)c3)n2)c1OC (stereo not shown) [Compound B354, (E)-3-(2,6-difluoro-4-{4-[2-methyloxy-3-(1-methyloxydecyl)phenyl]thiazol-2-ylcarbamoyl}phenyl)-2-methylacrylic acid]	3.2	
CCCCCCCCCCC(OC)c1cccc(-c2csc(NC(=O)c3cc(F)c(/C=C(\C)C(=O)O)c(F)c3)n2)c1OC (stereo not shown) [Compound B355, (E)-3-(2,6-difluoro-4-{4-[2-methyloxy-3-(1-methyloxyundecyl)phenyl]thiazol-2-ylcarbamoyl}phenyl)-2-methylacrylic acid]	3.3	
CCCOCCCc1cccc(-c2csc(NC(=O)c3cc(F)c(/C=C(\C)C(=O)O)c(F)c3)n2)c1OC [Compound B380, (E)-3-(2,6-difluoro-4-{4-[2-methyloxy-3-(3-propyloxypropyl)phenyl]thiazol-2-ylcarbamoyl}phenyl)-2-methylacrylic acid]	23.2	23.2
COc1c(COCCCC2CCCCC2)cccc1-c1csc(NC(=O)c2cc(F)c(/C=C(\C)C(=O)O)c(F)c2)n1 [Compound B397]	2.52	
CCCCOC(CC)c1cccc(-c2csc(NC(=O)c3cc(F)c(/C=C(\C)C(=O)O)c(F)c3)n2)c1OC (stereo not shown) [Compound B418, (E)-3-(4-{4-[3-(1-butyloxypropyl)-2-methyloxyphenyl]thiazol-2-ylcarbamoyl}-2,6-difluorophenyl)-2-methylacrylic acid]	6.3	
CCCCOCCCc1cccc(-c2csc(NC(=O)c3cc(F)c(/C=C(\C)C(=O)O)c(F)c3)n2)c1OC [Compound B419, (E)-3-(4-{4-[3-(3-butyloxypropyl)-2-methyloxyphenyl]thiazol-2-ylcarbamoyl}-2,6-difluorophenyl)-2-methylacrylic acid]	14.6	
CCCCOC(c1cccc(-c2csc(NC(=O)c3cc(F)c(/C=C(\C)C(=O)O)c(F)c3)n2)c1OC)C(C)(C)C (stereo not shown) [Compound B425, (E)-3-(4-{4-[3-(1-butyloxy-2,2-dimethylpropyl)-2-methyloxyphenyl]thiazol-2-ylcarbamoyl}-2,6-difluorophenyl)-2-methylacrylic acid]	2.01	
CCCCCOC(c1cccc(-c2csc(NC(=O)c3cc(F)c(/C=C(\C)C(=O)O)c(F)c3)n2)c1OC)C1CCCCC1 (stereo not shown) [Compound B484]	1.29	
COc1c(CCCOCC(C)(C)C)cccc1-c1csc(NC(=O)c2cc(F)c(/C=C(\C)C(=O)O)c(F)c2)n1 [Compound B488]	15.9	
CCCCCCOCCCc1cccc(-c2csc(NC(=O)c3cc(F)c(/C=C(\C)C(=O)O)c(F)c3)n2)c1OC [Compound B505, (E)-3-(2,6-difluoro-4-{4-[3-(3-hexyloxypropyl)-2-methyloxyphenyl]thiazol-2-ylcarbamoyl}phenyl)-2-methylacrylic acid]	12	
CCCCCCOC(c1cccc(-c2csc(NC(=O)c3cc(F)c(/C=C(\C)C(=O)O)c(F)c3)n2)c1OC)C1CCCCC1 (stereo not shown) [Compound B519]	1.03	
COc1c(CCCOCCC(C)(C)C)cccc1-c1csc(NC(=O)c2cc(F)c(/C=C(\C)C(=O)O)c(F)c2)n1 [Compound B521, (E)-3-[4-(4-{3-[3-(3,3-dimethylbutyloxy)propyl]-2-methyloxyphenyl}thiazol-2-ylcarbamoyl}-2,6-difluorophenyl)-2-methylacrylic acid]	16.9	
